Experimental data: patent US7977384B1, “Anticancer tobacco cembranoids” (The University of Louisiana at Monroe, priority 2007, dated 2011)
Where two headings read alike, the source gives them in different places. Ends that are not written are not given here.

Legend:
[1] = system: PC-3M cells; assay: […] invasion assay; format: cell-based, human
Method: Invasion assays were conducted in 24-well, two compartmented, invasion chambers sold under the trademark “[sequence]” and available from Becton Dickinson, Bedford, Mass. Exponentially growing prostate cancer cell line was serum-starved for 24 hours with basal RPMI medium containing no serum or growth factors (but containing 0.1% BSA, 10 mM HEPES, 4 mM L-glutamine, 100 IU/mL penicillin G and 100 mg/mL streptomycin). The cells were then harvested and seeded at a density of 25×10^3 cells/well in the upper insert of the [sequence] invasion chamber. The lower chamber received the chemo-attractant medium, which consisted of 90% basal RPMI medium and 10% conditioned medium from the cultures of PC-3M cells expressing active Gas protein. The incubations were carried out for 24 hours, after which the [sequence] […] The number of cells migrated on the outer bottom side of the insert was counted under the microscope in six or more randomly selected fields (magnification: 100×). The final results were expressed as mean +/− SEM per 100× field. […]
To correct this probability, the growth rate of PC-3M cells was determined under identical culture conditions. […] Mean percent increase in the cell number was determined at the end of the incubation period by counting the net increase in the number of cells. […]

[2] = system: PC-3M cells; assay: MTT proliferation assay, prostate cell line PC-3M; format: cell-based, human; conditions: 50 nM dose
Method: Proliferation of PC-3M MTT Assays. The growth of prostate cell line PC-3M was measured by 3-(4,5-dimethylthi-azol-2yl)-2,5-diphenyl tetrazolium bromide (MTT) assay. Exponentially growing cells were plated in a 96-well plate at a density of 8×10^3 cells per well and allowed to attach for 24 hours. Complete growth medium was replaced with 100 μl of RPMI serum-free medium (GIBCO-Invitrogen, NY) and culture continued at 37° C. under 5% CO2. After 24 hours of culture, the cells were treated with MTT solution at 37° C. for 4 hours. The color reaction was stopped by the addition of solubilization/stop solution (100 μl/well), and the incubation at 37° C. continued to completely dissolve the formazan product. Absorbance of the samples was determined at 595 nm with an ELISA plate reader (Bio-Rad, Hercules, Calif.).

[3] = system: PC-3M cells; assay: Transepithelial resistance (TER), stability of junctional complexes; format: cell-based, human
Method: Stability of junctional complexes can be estimated by the measurement of transepithelial resistance (TER). Cells were plated at confluency and grown on six well Transwell filters (0.4 μm pore size) in complete medium. TER values were measured in duplicate wells in every 12 hours using EVOM voltohmmeter (World Precision Instruments). The TER values were normalized to the area of the monolayer filter, and calculated by subtracting the blank values from the filter and bathing medium. All cell culture media were supplemented with 25 mM Hepes, pH 7.4, and the integrity and cell density of monolayers were carefully monitored during TER measurement studies.

[4] = system: highly malignant +SA mouse mammary epithelial cell line; assay: Antiproliferative MTT assay on +SA mammary epithelial cells; format: cell-based; conditions: for IC50: 4-day culture, MTT
Method: The antiproliferative effects of semisynthetic derivatives were tested in culture on the highly malignant +SA mouse mammary epithelial cell line maintained on serum-free media and containing 10 ng/mL EGF and 10 μg/mL insulin as mitogens. […] After a 4-day culture period, viable +SA cell number was determined by the 3-(4,5-dimethylthi-azol-2yl)-2,5-diphenyl tetrazolium bromide (MTT) colorimetric assay.

[5] = Substrate control (tested compound in blank media without microorganisms); format: physicochemical; conditions: 14 days
From the text: This conclusion was based on the rapid enzymatic actetate hydrolysis by most microbial species during biocatalytic screening while compound 22 was stable for 14 days in substrate control (tested compound in blank media without microorganisms).

[6] = system: PC-3M cells; assay: Growth rate of PC-3M cells by cell counting (correction for the invasion assay); format: cell-based, human; conditions: CT 50 nM, 1-24 hours; vehicle control=1
Method: To correct this probability, the growth rate of PC-3M cells was determined under identical culture conditions. 25×10^3 cells were plated at hourly intervals in six-well dishes and cultured with/without CT (50 nM) for 1-24 hours. Mean percent increase in the cell number was determined at the end of the incubation period by counting the net increase in the number of cells. […] This correction was applied to the results of invasion assays.

[7] = system: PC-3M cells; assay: Permeability assay (paracellular diffusion of dextran); format: cell-based, human; conditions: CT alone
Method: Permeability assay (Paracellular diffusion of Dextran). Cells were plated at confluency and grown on 12 well Transwell filters in complete medium for optimum TER development. Tetramethyl-rhodamine-dextran, with an average molecular mass of 4 kDa (available from Sigma in St. Louis, Mo.) dissolved in Hanks' Balanced Salt Solution (HBSS) to a concentration of 1 mg/ml was added to the upper chamber. The lower chamber was replaced with HBSS. At various time intervals, 100 μl aliquots were collected from the lower chamber and assayed […] spectrophotometer using excitation 530 and emission 590.

[8] = 15-40 μM dose, compared to vehicle controls

With `C/C1=C\[C@H](O)C[C@@](C)(O)/C=C/[C@H](C(C)C)C[C@@H](O)/C(C)=C/CC1` [Compound 7, (1S,2E,4R,6R,7E,11E,13R)-2,7,11-cembratriene-4,6,13-triol] the anti-invasive activity ([1]; 50 nM dose) was “potent anti-invasive activity” and the cytotoxicity [2] was “without cytotoxicity”.

With `CCNC(=O)O[C@H]1/C=C(/C)CC/C=C(\C)CC[C@@H](C(C)C)/C=C/[C@](C)(O)C1` [Compound 9, 6-O-[N-(ethyl)carbamoyl](1S,2E,4R,6R,7Z,11E)-2,7,11-cembratriene-4,6-diol] the “stabilization of junctional complexes” value ([3]; baseline and CT-stimulated TER and paracellular permeability) was “stabilized junctional complexes”.

For `CC(=O)O[C@H]1/C=C(/C)CC/C=C(\C)CC[C@@H](C(C)C)/C=C/[C@@](C)(O)C1` [Compound 22, 6-O-acetyl-(1S,2E,4S,6R,7Z,11E)-2,7,11-cembratriene-4,6-diol], the antiproliferative activity [4] was “reduced activity” and the “stability in substrate control” value [5] was “stable”.

For `CC(=O)O[C@H]1/C=C(\C)CC/C=C(\C)[C@H](O)C[C@@H](C(C)C)/C=C/[C@@](C)(O)C1` [Compound 25, (1S,2E,4S,6R,7E,11E,13R)-2,7,11-cembratriene-4,6,13-triol-6-O-acetate], the IC50 [4] was 30 µM and the antiproliferative activity [4, 8] was “potent antiproliferative activity”.

In the case of `CC(=O)O[C@H]1/C=C(\C)CC/C=C(\C)[C@@H](O)C[C@@H](C(C)C)/C=C/[C@@](C)(O)C1` [Compound 26, (1S,2E,4S,6R,7E,11E,13S)-2,7,11-cembratriene-4,6,13-triol-6-O-acetate], the antiproliferative activity [4] is reported as “much more active than the 13R”, the IC50 [4] is reported as 20 µM and the antiproliferative activity [4, 8] is reported as “potent antiproliferative activity”.

For `CC(=O)O[C@H]1/C=C(\C)CC[C@@H]2OC(=N)S[C@@]2(C)CC[C@@H](C(C)C)/C=C/[C@@](C)(O)C1` [Compound 28, 6-O-acetyl-(1S,2E,4S,6R,7Z,11S,12S)-2,7-cembradiene-11,12-oxathiaol-21-imino-4,6-diol], the antiproliferative activity [4] was “devoid of activity”.

For `C/C1=C\C(=O)C[C@](C)(O)/C=C/[C@H](C(C)C)CC/C(C)=C/CC1` [Compound 29, (1S,2E,4S,7E,11E)-2,7,11-cembratriene-4-ol-6-one], the antiproliferative activity [4] was “low antiproliferative activity”.

With `C/C1=C/C(=O)C[C@](C)(O)/C=C/[C@H](C(C)C)CC/C(C)=C/CC1` [Compound 30, (1S,2E,4S,6R,7E,11E)-2,7,11-cembratriene-4-ol-6-one] the antiproliferative activity [4] was “potent antiproliferative agent”, the antiproliferative activity [4, 8] was “potent antiproliferative activity” and the IC50 ([4]; Mus musculus, Epithelial cell, 96 h) was 15 µM. The “activity relative to parent compound 21” value ([4]; at higher doses) was “no more active”.

With `CC(=O)/C=C/C(CC/C(C)=C/CC/C(C)=C/C(C)=O)C(C)C` (stereo not shown) [Compound 31, (3E,7E,12E)-11-isopropyl-4,8-dimethylpentadeca-3,7,12-triene-2,14-dione] the antiproliferative activity [4, 8] was “potent antiproliferative activity”.

For `CC(C)=CCC/C(C)=C/CC/C(C)=C/CC[C@]1(C)CCc2cc(O)cc(C)c2O1` [δ-tocotrienol, reference compound], the IC50 [4] was 7 µM.

In the case of “Calcitonin (CGNLSTCMLGTYTQDFNKFHTFPQTAIGVGAP; ends and bridges not checked; cysteine pairing not given here; UniProt P01258 85-116, looked up) [CT, reference compound]”, the “effect on TER of PC-3M cell cultures” value ([3]; 50 nM CT) is reported as “dramatic reduction”, the “increase in the number of invaded cells” value ([1]; pooled data of multiple experiments) is reported as “two-fold” and the “relative CT-induced increase in cell number, pooled results of all time points” value [6] is reported as 1.19. The “paracellular permeability of PC-3M cells” value [7] was “increased”.
